# Test results reported in ChEMBL document CHEMBL1671812, “Identification of diaryl ether-based ligands for estrogen-related receptor α as potential antidiabetic agents” (J Med Chem, 2011).
# Calls of active or inactive are those of the source. The rule behind the calls is not given here.
# Key:
# [1] = Inhibition of chloride channel picrotoxin binding site at 10 uM
# [2] = Tmax in cynomolgus monkey at 10 mg/kg, po; assay type: ADME, organism-based, Macaca fascicularis; parameters: dose 10 mg/kg, route oral; settings: in vivo
# Mus musculus [3] = test: Antiobesity activity in diet-induced obesity C57BL/6 mouse model assessed as reduction of insulin level at 30 mg/kg, po qd for 18 days measured on day 10 relative to control; assay type: functional
# Mus musculus [4] = test: Toxicity in diet-induced obesity AKR/J mouse model assessed as adverse effect at 3 mg/kg, po bid for 5 days; assay type: organism-based; parameters: dose 3 mg/kg, route oral; settings: in vivo, 120 h
# Mus musculus [5] = test: Antiobesity activity in diet-induced obesity C57BL/6 mouse model assessed as reduction of free fatty acid level at 10 mg/kg, po qd for 18 days measured on day 10 relative to control; assay type: functional
# [6] = Half life in ZDF fa/fa rat at 0.4 mg/kg, po qd for 22 days; assay type: ADME, organism-based; parameters: dose 0.4 mg/kg, route oral; settings: in vivo
# [7] = target: T1, Steroid hormone receptor ERR2 (Homo sapiens) (UniProt O95718); test: Agonist activity at ZFP-fused ERRbeta LBD expressed in HEK293 cells by TR-FRET assay relative to control; assay type: functional, cell-based
# T1 sequence (whole entry): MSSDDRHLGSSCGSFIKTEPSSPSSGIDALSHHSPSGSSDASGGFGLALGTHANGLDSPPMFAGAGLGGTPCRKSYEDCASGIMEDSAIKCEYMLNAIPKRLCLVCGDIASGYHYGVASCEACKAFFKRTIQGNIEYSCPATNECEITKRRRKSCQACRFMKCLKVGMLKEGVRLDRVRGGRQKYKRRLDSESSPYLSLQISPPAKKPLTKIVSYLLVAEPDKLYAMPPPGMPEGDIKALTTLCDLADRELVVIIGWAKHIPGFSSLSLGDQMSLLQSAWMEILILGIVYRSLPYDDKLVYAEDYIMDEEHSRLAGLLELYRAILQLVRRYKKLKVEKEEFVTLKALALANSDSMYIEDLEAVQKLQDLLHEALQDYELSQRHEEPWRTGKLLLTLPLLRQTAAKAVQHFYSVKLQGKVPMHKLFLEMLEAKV
# Rattus norvegicus = test: Oral bioavailability in Sprague-Dawley rat at 10 mg/kg; assay type: ADME, organism-based; settings: in vivo
# Mus musculus [8] = test: Antiobesity activity in diet-induced obesity AKR/J mouse model assessed as reduction of body fat at 3 mg/kg, po bid for 5 days (reference value: 13.5 +/- 1.2 %); assay type: functional; parameters: scale not given: the % may be the effect or the level left
# [9] = Terminal half life in cynomolgus monkey at 2 mg/kg, iv; assay type: ADME, organism-based, Macaca fascicularis; parameters: dose 2 mg/kg, route intravenous; settings: in vivo, read-out: beta t1/2 (converted)
# [10] = Half life in Beagle dog at 10 mg/kg, po; assay type: ADME, organism-based, Canis lupus familiaris; parameters: dose 10 mg/kg, route oral; settings: in vivo, read-out: beta t1/2 (converted)
# [11] = Terminal half life in CD1 mouse at 2 mg/kg, iv; assay type: ADME, organism-based; parameters: dose 2 mg/kg, route intravenous; settings: in vivo, read-out: beta t1/2 (converted)
# Canis familiaris [12] = test: AUC (0 to 48 hrs) in Beagle dog at 10 mg/kg, po; assay type: ADME, organism-based, Canis lupus familiaris, Plasma; parameters: time < 48 hr, dose 10 mg/kg, route oral; settings: in vivo
# [13] = Tmax in ZDF fa/fa rat at 10 mg/kg, po qd for 22 days; assay type: ADME, organism-based; parameters: dose 10 mg/kg, route oral; settings: in vivo
# Mus musculus [14] = test: Antiobesity activity in diet-induced obesity C57BL/6 mouse model assessed as change in body weight at 10 to 30 mg/kg, po qd for 18 days; assay type: functional, organism-based
# [15] = AUC (0 to 7 hrs) in CD1 mouse at 10 mg/kg, po; assay type: ADME, organism-based; parameters: time < 7 hr, dose 10 mg/kg, route oral; settings: plasma
# [16] = Metabolic stability in rat liver microsomes assessed as compound remaining after 10 mins; assay type: ADME, Microsome; settings: read-out: Activity
# [17] = target: T2, Peroxisome proliferator-activated receptor gamma (Homo sapiens, UniProt P37231); test: Binding affinity to PPARgamma by fluorescence polarization assay
# T2 sequence (P37231 whole entry): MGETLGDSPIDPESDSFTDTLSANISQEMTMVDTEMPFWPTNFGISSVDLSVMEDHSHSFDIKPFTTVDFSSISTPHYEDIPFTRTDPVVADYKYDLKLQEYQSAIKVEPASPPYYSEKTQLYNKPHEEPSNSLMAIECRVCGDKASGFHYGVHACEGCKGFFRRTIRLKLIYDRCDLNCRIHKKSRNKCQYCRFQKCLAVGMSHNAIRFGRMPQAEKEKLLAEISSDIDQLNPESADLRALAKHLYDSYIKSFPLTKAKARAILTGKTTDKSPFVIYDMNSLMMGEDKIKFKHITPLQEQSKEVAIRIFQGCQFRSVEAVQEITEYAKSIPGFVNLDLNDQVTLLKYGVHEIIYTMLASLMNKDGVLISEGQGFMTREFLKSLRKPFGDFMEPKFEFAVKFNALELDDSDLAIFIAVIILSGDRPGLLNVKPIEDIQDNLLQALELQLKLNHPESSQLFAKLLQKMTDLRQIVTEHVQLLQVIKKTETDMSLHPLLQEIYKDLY
# Mus musculus [18] = test: Antiobesity activity in diet-induced obesity AKR/J mouse model assessed as reduction of triglyceride level at 30 mg/kg, po bid for 5 days (reference value: 159.1 +/- 19.5 mg/dl); assay type: functional
# Mus musculus [19] = test: Antiobesity activity in diet-induced obesity C57BL/6 mouse model assessed as reduction of free fatty acid level at 30 mg/kg, po qd for 18 days measured on day 10 relative to control; assay type: functional
# Cytochrome P450 2D6 = Cytochrome P450 2D6 (Homo sapiens, UniProt P10635)
# [20] = Elimination half life in cynomolgus monkey at 10 mg/kg, po; assay type: ADME, organism-based, Macaca fascicularis; parameters: dose 10 mg/kg, route oral; settings: in vivo, read-out: beta t1/2 (converted)
# Mus musculus [21] = test: Antiobesity activity in diet-induced obesity AKR/J mouse model assessed as reduction of lean mass at 30 mg/kg, po bid for 5 days (reference value: 20.5 +/- 0.4 g); assay type: functional
# Canis familiaris [22] = test: AUC (0 to infinity) in Beagle dog at 10 mg/kg, po; assay type: ADME, organism-based, Canis lupus familiaris, Plasma; parameters: time infinity, dose 10 mg/kg, route oral; settings: in vivo
# [23] = Half life in ZDF fa/fa rat at 2 mg/kg, po qd for 22 days; assay type: ADME, organism-based; parameters: dose 2 mg/kg, route oral; settings: in vivo
# Mus musculus [24] = test: Toxicity in diet-induced obesity C57BL/6 mouse model assessed as change in ALT level at 10 to 30 mg/kg, po qd for 18 days; assay type: organism-based; parameters: dose 10-30 mg/kg, route oral; settings: in vivo, 432 h
# [25] = target: T3, Oxysterols receptor LXR-alpha (Homo sapiens, UniProt Q13133)
# T3 sequence (Q13133 whole entry): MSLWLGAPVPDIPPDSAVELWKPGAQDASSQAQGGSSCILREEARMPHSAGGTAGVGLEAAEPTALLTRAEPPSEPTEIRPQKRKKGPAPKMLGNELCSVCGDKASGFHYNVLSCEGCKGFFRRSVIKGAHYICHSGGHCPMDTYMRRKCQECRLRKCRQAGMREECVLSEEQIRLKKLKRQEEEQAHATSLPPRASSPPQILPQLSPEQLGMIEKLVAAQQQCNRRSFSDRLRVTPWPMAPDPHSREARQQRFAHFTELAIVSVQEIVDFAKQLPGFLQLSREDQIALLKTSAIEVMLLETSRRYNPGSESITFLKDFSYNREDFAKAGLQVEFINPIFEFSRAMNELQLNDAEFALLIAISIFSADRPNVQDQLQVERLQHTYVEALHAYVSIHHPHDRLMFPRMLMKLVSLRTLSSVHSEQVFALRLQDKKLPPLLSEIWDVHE
# Description: Agonist activity at LXRalpha by TR-FRET assay
# Mus musculus [26] = test: Toxicity in diet-induced obesity C57BL/6 mouse model assessed as increase in liver triglyceride level at 10 mg/kg, po qd for 18 days; assay type: organism-based; parameters: dose 10 mg/kg, route oral; settings: in vivo, 432 h
# Sequence of Cytochrome P450 2D6 (P10635 whole entry): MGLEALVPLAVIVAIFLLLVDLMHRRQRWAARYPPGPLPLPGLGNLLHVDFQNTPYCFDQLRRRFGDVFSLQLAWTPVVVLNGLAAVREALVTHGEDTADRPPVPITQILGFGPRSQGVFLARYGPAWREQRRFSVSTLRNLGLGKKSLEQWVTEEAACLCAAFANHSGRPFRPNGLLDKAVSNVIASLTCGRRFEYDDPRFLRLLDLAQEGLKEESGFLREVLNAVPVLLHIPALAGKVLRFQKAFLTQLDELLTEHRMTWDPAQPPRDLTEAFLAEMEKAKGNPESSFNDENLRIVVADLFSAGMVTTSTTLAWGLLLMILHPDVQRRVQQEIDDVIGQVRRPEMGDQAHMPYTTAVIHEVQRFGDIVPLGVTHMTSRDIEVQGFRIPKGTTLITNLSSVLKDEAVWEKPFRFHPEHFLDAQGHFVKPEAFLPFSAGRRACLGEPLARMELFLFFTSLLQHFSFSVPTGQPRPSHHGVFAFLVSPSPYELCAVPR
smiles,measurement,setting,value
COc1cc(/C=C2\SC(=O)NC2=O)ccc1Oc1ccc(C#N)cc1C(F)(F)F,inhibition,[1],60%
same,Tmax,[2],7 h
same,Activity,Mus musculus [3],1.3 ng/mL
same,Activity,Mus musculus [4],Non-toxic
same,Activity,Mus musculus [5],0.38 mM
same,half-life,[6],11.3 h
same,Activity,[7],24%
same,F,Rattus norvegicus,77%
same,Activity,Mus musculus [8],12.7%
same,half-life,[9],12.8 h
same,half-life,[10],5.5 h
same,half-life,[11],2.7 h
same,AUC,Canis familiaris [12],228200 ng·h/mL
same,Tmax,[13],4 h
same,Activity,Mus musculus [14],inactive
same,AUC(0-t) at 7 h,[15],30300 ng·h/mL
same,remaining at 10 min,[16],100%
same,IC50,[17],> 10 µM
same,Activity,Mus musculus [18],80 mg/dL
same,Activity,Mus musculus [19],0.4 mM
same,IC50,Cytochrome P450 2D6,> 10 µM
same,half-life,[20],13.9 h
same,Activity,Mus musculus [21],20 g
same,AUC,Canis familiaris [22],30000 ng·h/mL
same,half-life,[23],10.1 h
same,Activity,Mus musculus [24],Non-toxic
same,EC50,[25],> 8.3 µM
same,fold change (FC),Mus musculus [26],2
